Each structure is given as a SMILES string.

One series addresses T1, rat D5D (Rattus norvegicus, UniProt Q920R3).
T1 construct: using hepatic microsomes prepared from SD rats; from tissue; host or cells: liver microsomes of SD rats (CLEA, Japan)
The experiment in a line: In vitro enzyme assay for desaturase activity (hepatic microsomes), D5D. Format: biochemical. The procedure:
Therefore, we also confirmed that compound-326 has no effect on D9D activity. Inhibitory activity of compound-326 on rat D5D, D6D, and D9D was evaluated using hepatic microsomes prepared from SD rats (CLEA, Japan) as described previously. Assays were performed in a total volume of 30 μL in 96-well plates in a buffer containing 100 mM NaHPO4, 150 mM KCl, 10 mM NaF, 1.5 mM glutathione, 3 mM MgCl2, 1 mM NADH, 3 mM ATP, 0.3 mM CoA-SH, and 0.1% fatty acid free bovine serum albumin (BSA, Sigma, St. Louis, MO); and 0.1 μCi/well of [^14C] DGLA or [^14C] linoleic acids (ARC, St. Louis, MO) were used as substrates for measuring D5D and D6D activities, respectively. After pre-incubation of the test compound with rat liver microsomes (final 1.0 mg/mL) for 5 min, the reaction was started by the addition of NADH, ATP, and the substrates, and the reaction mixture was incubated for another 120 min at room temperature. For D9D assay, [^14C] stearoyl-CoA (PerkinElmer, Waltham, MA) was used in the absence of NADH, ATP, and CoA-SH, and D9D enzyme reaction was performed for 30 min. The reactions were then terminated by the addition of 0.63 N NaOH. […] 2.3 (Fujifilm) and IC50 values were determined using the conversion ratio from the radioactive substrates (20:3n6, 18:2n6 and 18:0) to the products (20:4n6, 18:3n6 and 18:1n9).

Another series deals with T2, human D9D (Homo sapiens, UniProt O00767).
T2 construct: endogenous in cells; host or cells: HepG2
T2 sequence (O00767 1-359): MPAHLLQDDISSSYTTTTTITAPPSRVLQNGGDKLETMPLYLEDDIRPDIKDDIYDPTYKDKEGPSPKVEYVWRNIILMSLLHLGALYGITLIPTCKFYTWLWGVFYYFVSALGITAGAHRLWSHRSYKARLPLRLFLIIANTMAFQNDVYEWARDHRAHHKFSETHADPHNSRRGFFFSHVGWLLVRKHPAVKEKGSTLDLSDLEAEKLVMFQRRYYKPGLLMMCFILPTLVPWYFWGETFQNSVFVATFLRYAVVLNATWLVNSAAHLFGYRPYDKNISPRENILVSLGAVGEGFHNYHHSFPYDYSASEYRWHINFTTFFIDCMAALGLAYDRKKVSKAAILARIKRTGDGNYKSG
The experiment in a line: In vitro cell-based assay for desaturase activity (HepG2), D9D. On the procedure: HepG2 cells were seeded in 96-well cell culture plates at 100 000 cells/well and incubated overnight in DMEM supplemented with 10% fetal bovine serum, 100 U/mL penicillin, and 100 μg/mL streptomycin in 5% CO2 at 37°C. The cells were washed twice with 200 μL of PBS and incubated with the test compounds in DMEM with 0.1% fatty acid free BSA for 30 min. Then, 0.1 μCi/well of [^14C]-labeled DGLA, linoleic acid, and stearic acid (ARC, St. Louis, MO) were added for each desaturase assay. After incubation for 3 h at 37°C, the cells were washed 3 times with 200 μL of PBS to remove [^14C]-labeled substrates in the medium and 0.63 N of NaOH was added to saponify fatty acids. Radioactive substrates and products were extracted, separated, and analyzed using the method as described above.

The test system of the next series is DIO mice. The series can be described thus: Anti-obesity effects in DIO mice, 6-week treatment (HFD D12492): BW, calorie intake, observations. Format: in vivo, C57BL/6J mice. On the procedure:
In this report, we performed 3 independent studies in DIO mice to characterize anti-obesity effects of our D5D specific inhibitor. Male C57BL/6J mice were obtained from Charles River Laboratories (Yokohama, Japan) or CLEA Japan (Osaka, Japan). The mice were fed a laboratory chow and water ad libitum and housed in a 12-h light/dark cycle. Compound or vehicle was administered once daily between 15: 00–19:00 by oral gavage. Body weight (BW) and food intake were monitored throughout the experiment.
(§1) Mice were fed a high-fat diet (HFD) that has 60% kcal from fat and contains 0.09% (w/w) AA (D12492; Research diets, Inc., see S1 Table for fatty acid profile) from 5 weeks of age, and they were divided into 5 groups (7 animals per group) at 11 weeks of age based on BW and daily food intake. In this experiment, 30 mg/kg sibutramine, a […], was used as a positive control for anti-obesity effects. Mice were orally administered compound-326 at doses of 0.1, 1, and 10 mg/kg, sibutramine at a dose of 30 mg/kg, or vehicle for 6 weeks. After 6 weeks, blood concentrations of DGLA and AA under non-fasting condition were evaluated as pharmacodynamics (PD) markers, and oral glucose tolerance test (OGTT) was performed.

For the next series, the system named is D5D. The experiment in a line: Blood fatty acids (PD markers AA, DGLA, EPA, DHA) after 6-week treatment in DIO mice. Format: in vivo, C57BL/6J mice. The conditions noted are these: compound-326 0.1, 1, 10 mg/kg, 6 weeks. The procedure:
Fatty acids were extracted from blood and tissues by adding hexane-isopropanol-butylated hydroxytoluene (60:40:0.01, v/v/w). Samples were vortexed for 30 min. The hexane phase was removed and evaporated to dryness under nitrogen stream and vacuum. Dried samples were dissolved in methanol and analyzed by HPLC.
as §1

T1 sequence (Q920R3 whole entry): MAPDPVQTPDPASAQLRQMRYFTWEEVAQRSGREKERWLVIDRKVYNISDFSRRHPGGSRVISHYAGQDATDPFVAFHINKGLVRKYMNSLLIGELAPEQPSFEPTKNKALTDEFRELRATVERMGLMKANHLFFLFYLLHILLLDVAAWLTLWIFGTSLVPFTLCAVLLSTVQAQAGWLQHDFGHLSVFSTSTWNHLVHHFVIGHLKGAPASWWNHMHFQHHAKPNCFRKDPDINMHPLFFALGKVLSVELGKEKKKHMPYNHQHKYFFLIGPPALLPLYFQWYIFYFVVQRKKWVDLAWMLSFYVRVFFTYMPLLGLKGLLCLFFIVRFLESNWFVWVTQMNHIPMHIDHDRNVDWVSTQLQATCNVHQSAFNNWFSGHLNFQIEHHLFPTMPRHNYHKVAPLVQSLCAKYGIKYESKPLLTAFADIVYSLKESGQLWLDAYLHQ

With `O=C1Cc2c(nc(OCC(F)(F)C(F)(F)F)n(-c3ccc(OCC(F)(F)F)cc3)c2=O)N1` [Compound-326, 2-(2,2,3,3,3-Pentafluoropropoxy)-3-[4-(2,2,2-trifluoroethoxy)phenyl]-5,7-dihydro-3H-pyrrolo[2,3-d]pyrimidine-4,6-dione], the results for the IC50 at rat D5D and on human D9D were 72 nM and > 10 µM, respectively. Besides, the BW result is “gradual decrease in BW” with DIO mice (compound-326 10 mg/kg p.o. once daily, 6 weeks); “not effective” in the series with DIO mice (compound-326 lower doses (0.1 and 1 mg/kg) p.o., 6 weeks). Besides, the “abnormal findings such as behavioral changes, diarrhea, or steatorrhea” value in the series on DIO mice (compound-326 0.1-10 mg/kg p.o., 6 weeks) is recorded as “No abnormal findings”. Also, in the series with DIO mice (compound-326 at all doses (0.1, 1, 10 mg/kg), slight decrease at 10 mg/kg), the daily calorie intake entry is “not altered significantly”. Besides, the “blood AA to DGLA ratio” value with D5D is on record as “decreased significantly”. The “blood level of DHA” value in the series with D5D (dose dependent) was “decreased”. Also, in the series on D5D (dose dependent), the “blood level of EPA” value is “decreased”. Also, the “blood AA” value in the series with D5D (dose-dependent, non-fasting) is “decreased”. In the series with D5D (dose-dependent, non-fasting), the “blood DGLA” value is “increased”.

As a reminder, the IC50 is the concentration needed to halve the response being measured. Read a low IC50 as higher potency.

Source of the values: publication PMC5104425, “A Novel Selective Inhibitor of Delta-5 Desaturase Lowers Insulin Resistance and Reduces Body Weight in Diet-Induced Obese C57BL/6J Mice” (PLoS ONE, 2016).
